Results on five molecules are retold here after patent publication US20030153611A1, “1,3-Diarylprop-2-en-1-ones, compositions containing them and use thereof” (AVENTIS PHARMA S.A., priority 2001, published 2003).

Counter-ions that a name gives are not always drawn.

Data set [1] deals with T1, Tubulin (Sus scrofa, UniProt P02550+P02554).
T1 construct: Tubulin is purified from pig brains according to the published methods; from tissue; host or cells: pig brain
Description: Assessment of the inhibition of tubulin polymerization (turbidimetry). It is filed as biochemical, pig. Particulars: tubulin 10 μM, turbidity at 350 nm, 37° C. The procedure:
Tubulin is purified from pig brains according to the published methods (Shelanski et al., 1973, Proc. Natl, Acad. Sci. USA, 70, 765-768. Weingarten et al., 1975, Proc. Natl, Acad. Sci. USA, 72, 1858-1862). Briefly, the brains are ground and centrifuged in an extraction buffer. The tubulin, contained in the extract supernatant, is subjected to two successive cycles of polymerization at 37° C. and depolymerization at 4° C., before being separated from the MAPs (Microtubule Associated Proteins) by chromatography on a phosphocellulose P11 column (Whatman). The tubulin thus isolated is more than 95% pure. It is stored in a buffer known as RB/2 30% glycerol, the composition of which is MES-NaOH [2-(N-morpholino)ethanesulfonic acid] 50 mM, pH 6.8; MgCl2 0.25 mM; EGTA 0.5 mM; 30% glycerol (v/v), GTP (guanosine 5′-triphosphate) 0.2 mM.
The polymerization of the tubulin into microtubules is monitored by turbidimetry as follows; the tubulin is adjusted to a concentration of 10 μM (1 mg/ml) in the RB/2 30% glycerol buffer, to which is added 1 mM GTP and 6 mM MgCl2. The polymerization is initiated by increasing the temperature from 6° C. to 37° C. in a cuvette with a 1 cm optical pathlength, placed in a Uvikon 931 spectrophotometer (Kontron) equipped with a thermostatically-regulated cuvette holder. The increase in the turbidity of the solution is monitored at 350 nm.
The products are dissolved at 10 mM in DMSO and added at variable concentrations (0.5 to 10 μM) to the tubulin solution before polymerization. The IC50 value is defined as the concentration of product which inhibits 50% of the rate of polymerization. A product whose IC50 value is less than or equal to 3 μM is considered as very active.

Data set [2] deals with C51 murine adenocarcinoma. Briefly: Assessment of the tumor necrosis in vivo. Particulars: intravenous injection, 24 hours after treatment, female BALB/c mice. From the text: Mice are bred by IFFA-CREDO (Domaine des Oncins, 69210 L'Arbresle, France) from a race obtained by Jackson Laboratories, Bar Harbor, Me., USA, or by Charles River France (76410 St Aubin les Elbeuf, France) from a race obtained by Charles River, USA. The mice initially weigh more than 18 g at the start of the test. They have free access to food (UAR reference 113, Villemoisson, 91160 Epinay sur Orge, France) and water.
The tumors used are currently transplanted in our laboratories. All these tumors are at the Frederick Cancer Research Facility (Frederick, Md., USA) in the frozen tumor deposit of the National Cancer Institute (NCl) or at the American Type Culture Collection (ATCC, Rockville, Md., USA).
The tumor transplantation techniques, the chemotherapy and the data analysis are presented in detail (Corbett et al. 1982a; Corbett et al., 1982b).
To summarize, the animals required for an experiment are assembled and implanted bilaterally on day 0 (zero).
The growth of the solid tumors develops freely up to the desired size. The mice are then treated by intravenous injection of a test compound in solution.
The sampling of tumors is usually (but not necessarily) carried out 24 hours after the treatment.
The mice are killed by […]. The implanted tumors, along with the skin covering them and the neighboring tissues, are collected and stored in 10% formaldehyde (v/v) (Carlo Erba, Val de Reuil, France).
The samples are then treated, sectioned, stained with hematoxylin, eosin and saffron yellow, and are then examined […]. The tumor necrosis (necrosis±degeneration) is assessed microscopically using a scale of magnitude from 0 to 5:
The values assigned to the tumor necrosis 24 hours after administration of the test compound correspond solely to a necrosis dependent on the product which may be differentiated with certainty from any existing necrosis arising from the experiment.
The necrosis due to the experiment was assessed on an untreated control.
The tumor model is a C51 murine adenocarcinoma. This colon tumor is a grade III mucous colon […]. It is maintained by serial subcutaneous passages every 18 days in female BALB/c mice. The experiments were carried out on female BALB/c mice.

The test system of data set [3] is HDMEC cells. Briefly: Detachment effect on HDMEC endothelial cells. Particulars: 1 μM, treatment for two hours. In kind it is cell-based, Human.
Description: A test to determine the detachment of endothelial cells was established in order to select the products on the basis of their “in vitro” activity. This test for determining the endothelial cell detachment is characterized in that the endothelial cells, inoculated in plates which are coated at the bottom with a binder, e.g., chosen from gelatin, fibronectin or vitronectin, after culturing, are supplemented with a medium containing the test compound, and the cells are then labeled with a fluorescent substance, the cells which become detached are removed by washing and the fluorescence of the remaining cells is counted in a fluorimeter.
This test consists in measuring the detachment of endothelial cells cultured on substrates based on a binder, e.g., chosen from fibronectin, vitronectin and gelatin. One day after inoculating the cells in plates containing 96 wells, for example, the culture medium is replaced with a medium containing the test compound in the absence of serum. The same preparation is prepared six times at three different concentrations ([…]) and the control without addition of antivascular product is prepared six times. After treatment for two hours with the test substance, the cells are labeled with calcein-AM (1.6 μg/ml) in a culture medium supplemented with 0.1% BSA. The cells which become detached are removed by washing with the culture medium containing 0.1% bovine serum albumin; 100 μl of medium are added to each well. The fluorescence of the remaining cells is counted in a fluorimeter. The data obtained are expressed relative to the control (untreated cells).
(§1) The assessment of the detachment of the endothelial cells in vitro is determined in the following way. HDMEC cells (Human Dermal Microvascular Endothelial Cells, Promocell, c-122102) are cultured in an ECGM-MV medium containing 5% fetal calf serum, growth factors (EGF 10 ng/ml, hydrocortisone 1 μg/ml, 0.4% growth supplement with heparin) and antibiotics (amphotericin 50 ng/ml, gentamicin 50 μg/ml). For the detachment test, the HDMECs are inoculated at a rate of 5 000 cells in clear-bottomed 96-well plates (Costar) precoated with fibronectin (10 μg/ml) or vitronectin (1 μg/ml) or gelatin. Twenty-four hours later, the culture medium is replaced with 0.1% BSA ECGM-MV medium containing the indicated products. The test concentrations are 0.1-0.3 and 1 μM for each product. After treatment for two hours, the cells are labeled for 1 hour with calcein (1.6 μg/ml, Molecular Probes) in 0.1% BSA ECGM-MV medium. The detached cells are then removed by washing with 0.1% BSA ECGM-MV medium; 100 μl of medium are added to each well. The fluorescence of the cells which remain attached to the substratum of the well is counted using a fluorimeter, Spectrafluor Plus (Tecan, excitation at 485 nm, and emission at 535 nm). The data are the average of six different samples and are expressed as a percentage of the control (untreated cells).
A cell detachment effect of greater than or equal to 15% is considered as significant.
as §1, with “(amphotericine” for “(amphotericin”, “The detached cells are then removed by washing with 0.1% BSA ECGM-MV medium; 100 μl of medium are added to each well. The fluorescence of the cells which remain attached to the substratum of the well is counted using a fluorimeter, Spectrafluor Plus (Tecan, excitation at 485 nm, and emission at 535 nm). The data are the average of six different samples and are expressed as a percentage of the control (untreated cells).” left out

Data set [4] has as its system HDMEC. Briefly: Inhibition of cell proliferation, HDMEC. It is filed as cell-based. Particulars: Homo sapiens.

T1 sequence (P02550 whole entry): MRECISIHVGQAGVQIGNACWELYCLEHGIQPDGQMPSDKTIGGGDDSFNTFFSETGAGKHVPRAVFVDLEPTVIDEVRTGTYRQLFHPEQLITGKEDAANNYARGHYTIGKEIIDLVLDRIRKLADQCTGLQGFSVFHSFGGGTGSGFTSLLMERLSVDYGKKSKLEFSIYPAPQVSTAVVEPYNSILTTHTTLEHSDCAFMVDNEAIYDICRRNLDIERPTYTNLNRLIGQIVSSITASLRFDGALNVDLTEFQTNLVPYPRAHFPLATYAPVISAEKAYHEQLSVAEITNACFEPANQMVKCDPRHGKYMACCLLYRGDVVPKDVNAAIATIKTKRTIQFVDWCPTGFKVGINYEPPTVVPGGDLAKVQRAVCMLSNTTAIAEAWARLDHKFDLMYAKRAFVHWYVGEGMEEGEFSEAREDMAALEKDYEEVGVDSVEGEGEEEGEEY
T1 sequence (P02554 whole entry): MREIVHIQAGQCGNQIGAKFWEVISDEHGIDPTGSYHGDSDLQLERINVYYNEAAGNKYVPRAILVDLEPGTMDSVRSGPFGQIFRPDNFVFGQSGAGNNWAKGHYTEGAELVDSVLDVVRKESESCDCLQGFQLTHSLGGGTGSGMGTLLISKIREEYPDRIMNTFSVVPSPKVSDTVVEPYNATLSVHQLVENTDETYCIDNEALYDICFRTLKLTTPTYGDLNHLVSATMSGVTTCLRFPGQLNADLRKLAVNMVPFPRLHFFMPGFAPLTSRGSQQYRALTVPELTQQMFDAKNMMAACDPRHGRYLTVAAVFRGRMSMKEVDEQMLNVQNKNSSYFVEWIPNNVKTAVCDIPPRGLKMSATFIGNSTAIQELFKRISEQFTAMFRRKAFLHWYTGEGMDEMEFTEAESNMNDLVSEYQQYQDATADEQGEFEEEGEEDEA

The term melting point denotes the temperature of the solid-liquid transition. Broadly, the IC50 is the midpoint of a concentration-inhibition curve. For the molecule `COc1cc(C(=O)/C(C)=C/c2ccc3c(ccn3CCN(C)C)c2)cc2c1OCO2` [Example 18, E-2-Methyl-3-[1-(2-dimethylaminoethyl)-1-H-indol-5-yl]-1-(3-methoxy-4,5-methylenedioxyphenyl)propenone], the melting point worked out at 118 °C. This molecule also registered an IC50 in data set [1] of 2000 nM.
Regarding `COc1ccc(C=C(C)C(=O)c2cc(OC)c(OC)c(OC)c2)cc1NC(=O)[C@@H](N)CCCCN.Cl.Cl` [Example 10, (S)-2,6-Diaminohexanoic acid {2-methoxy-5-[2-methyl-3-oxo-3-(3,4,5-trimethoxyphenyl)propenyl]-phenyl}amide dihydrochloride], in data set [2] (25 mg/kg), the “C51 colon tumor necrosis in vivo (grade)” value is recorded as “Grade 5 at 25 (5=large, >75%)”. The “Percentage of detachment of HDMEC cells induced with the compound at a concentration of 1 μM” value (shortened to “Percentage”) in data set [3] was determined as 36%. For the same molecule, the IC50 in data set [4] was 207 to 225 nM.
The molecule `COc1cc(C(=O)/C(C)=C/c2ccc3[nH]ccc3c2)cc2c1OCO2` [Example 17, E-2-Methyl-3-(1-H-indol-5-yl)-1-(3-methoxy-4,5-methylenedioxyphenyl)propenone] displayed a melting point of 140 °C. The molecule also displayed a half-maximal inhibitory concentration (IC50) in data set [1] of 800 nM.
`COc1cc(C(=O)/C(C)=C/c2ccc3c(c2)CCN3C)cc(OC)c1OC` [Example 6, E-2-Methyl-3-(1-methyl-2,3-dihydro-1-H-indol-5-yl)-1-(3,4,5-trimethoxyphenyl)propenone]: the “C51 colon tumor necrosis in vivo (grade)” value in data set [2] (50 mg/kg) was “Grade 5 at 50 (5=large, >75%)”. The IC50 in data set [1] was 800 nM; in data set [4], 17 to 20 nM. Moreover, in data set [3], the “Percentage” value is 28%.
Regarding `COc1ccc(/C=C(\C)C(=O)c2cc(OC)c(OC)c(OC)c2)cc1NC(=O)CN` [Example 14, Aminoacetic acid {2-methoxy-5-[2-methyl-3-oxo-3-(3,4,5-trimethoxyphenyl)propenyl]phenyl}amide hydrochloride], the “C51 colon tumor necrosis in vivo (grade)” value in data set [2] (25 mg/kg) was “Grade 5 at 25 (5=large, >75%)”. The values for the IC50 in data set [1] and in data set [4] were 25000 nM and 10 nM, respectively. Moreover, in data set [3], the “Percentage” value turned out to be 36%.
